Results as given in patent publication US10597388B2, “Pyridazinone herbicides” (FMC CORPORATION, priority 2014, dated 2020).

Key:
Assay type in all cases: in vivo
[1] = system: barnyardgrass (Echinochloa crus-galli); assay: Test A greenhouse herbicide test, pre- and postemergence
Excerpt: (§1) Seeds of plant species selected from barnyardgrass (Echinochloa crus-galli), kochia (Kochia scoparia), ragweed (common ragweed, Ambrosia elatior), ryegrass, Italian (Italian ryegrass, Lolium multiflorum), crabgrass, large (large crabgrass, Digitaria sanguinalis), foxtail, giant (giant foxtail, Setaria faberii), momingglory (Ipomoea spp.), pigweed (Amaranthus retroflexus), velvetleaf (Abutilon theophrasti), wheat (Triticum aestivum), and corn (Zea mays) were planted into a blend of loam soil and sand and treated preemergence with a directed soil spray using test chemicals formulated in a non-phytotoxic solvent mixture which included a surfactant.
(§2) At the same time, plants selected from these crop and weed species and also blackgrass (Alopecurus myosuroides), and galium (catchweed bedstraw, Galium aparine) were planted in pots containing the same blend of loam soil and sand and treated with postemergence applications of test chemicals formulated in the same manner. Plants ranged in height from 2 to 10 cm and were in the one- to two-leaf stage for the postemergence treatment. Treated plants and untreated controls were maintained in a greenhouse for approximately 10 d, after which time all treated plants were compared to untreated controls and visually evaluated for injury. Plant response ratings, summarized in Table A, are based on a 0 to 100 scale where 0 is no effect and 100 is complete control. A dash (-) response means no test result.

corn (Zea mays) = assay: as above; conditions: Postemergence; for Plant response rating, Corn: 125 g ai/ha, 0 to 100 scale where 0 is no effect and 100 is complete control; for Corn plant response rating: 500 g ai/ha, 0 to 100 scale, 0 is no effect, 100 is complete control
Excerpt: as §1, §2

[2] = system: foxtail, giant (giant foxtail, Setaria faberii); assay: as above
Excerpt: as §1, §2

kochia (Kochia scoparia) = assay: as above
Excerpt: as §1, §2

[3] = system: pigweed (Amaranthus retroflexus); assay: as above
Excerpt: as §1, §2

[4] = system: ragweed (common ragweed, Ambrosia elatior); assay: as above
Excerpt: as §1, §2

[5] = system: ryegrass, Italian (Italian ryegrass, Lolium multiflorum); assay: as above
Excerpt: as §1, §2

[6] = system: wheat (Triticum aestivum); assay: as above; conditions: Postemergence; for Plant response rating, Wheat: 125 g ai/ha, 0 to 100 scale where 0 is no effect and 100 is complete control; for Wheat plant response rating: 500 g ai/ha, 0 to 100 scale, 0 is no effect, 100 is complete control
Excerpt: as §1, §2

[7] = system: blackgrass (Alopecurus myosuroides); assay: Test A greenhouse herbicide test, postemergence; conditions: for Plant response rating, Blackgrass: 125 g ai/ha, 0 to 100 scale where 0 is no effect and 100 is complete control; for Blackgrass plant response rating: 500 g ai/ha, 0 to 100 scale, 0 is no effect, 100 is complete control
Outline: (§3)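 Seedlings in a loam soil and sand mix received formulated compound postemergence at the one- to two-leaf stage. Greenhouse holding lasts approximately 10 d, then injury is scored visually relative to untreated plants, 0 meaning no effect and 100 complete control.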

[8] = system: galium (catchweed bedstraw, Galium aparine); assay: Test A greenhouse herbicide test, postemergence; conditions: for Plant response rating, Galium: 125 g ai/ha, 0 to 100 scale where 0 is no effect and 100 is complete control; for Galium plant response rating: 500 g ai/ha, 0 to 100 scale, 0 is no effect, 100 is complete control
Outline: as §3

[9] = system: barnyardgrass (Echinochloa crus-galli); assay: Test B flooded paddy test; conditions: 250 g ai/ha, Flood; visual rating on scale of 0 to 100 where 0 is no effect and 100 is complete control; 13 to 15 d after treatment
Outline: (§4)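 Ratings use a 0-100 visual scale, where 100 is complete control, and compare treated plants with controls after 13 to 15 d of greenhouse growth. Compound went straight into paddy water kept 3 cm over the soil surface, applied to seedlings at the 2-leaf stage.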

[10] = system: ducksalad (Heteranthera limosa); assay: Test B flooded paddy test; conditions: 250 g ai/ha, Flood; visual rating on scale of 0 to 100 where 0 is no effect and 100 is complete control; 13 to 15 d after treatment
Outline: as §4

rice (Oryza sativa) = assay: Test B flooded paddy test; conditions: 250 g ai/ha, Flood; visual rating on scale of 0 to 100 where 0 is no effect and 100 is complete control; 13 to 15 d after treatment
Outline: as §4

[11] = system: sedge, umbrella (small-flower umbrella sedge, Cyperus difformis); assay: Test B flooded paddy test; conditions: 250 g ai/ha, Flood; visual rating on scale of 0 to 100 where 0 is no effect and 100 is complete control; 13 to 15 d after treatment
Outline: as §4

[12] = Postemergence, 125 g ai/ha, 0 to 100 scale where 0 is no effect and 100 is complete control
[13] = Postemergence, 500 g ai/ha, 0 to 100 scale, 0 is no effect, 100 is complete control
[14] = Preemergence, 125 g ai/ha, 0 to 100 scale where 0 is no effect and 100 is complete control
[15] = Preemergence, 500 g ai/ha, 0 to 100 scale, 0 no effect, 100 complete control

SMILES | Plant response rating, Barnyardgrass [1, 12] | Barnyardgrass plant response rating [1, 13] | Barnyardgrass plant response rating [1, 14] | Plant response rating, Barnyardgrass [1, 15] | Plant response rating, Corn (corn (Zea mays)) | Corn plant response rating (corn (Zea mays)) | Plant response rating, Foxtail, Giant [2, 12] | Foxtail, Giant plant response rating [2, 13] | Foxtail, Giant plant response rating [2, 14] | Plant response rating, Foxtail, Giant [2, 15] | Plant response rating, Kochia (kochia (Kochia scoparia); [12]) | Kochia plant response rating (kochia (Kochia scoparia); [13]) | Kochia plant response rating (kochia (Kochia scoparia); [14]) | Plant response rating, Kochia (kochia (Kochia scoparia); [15]) | Plant response rating, Pigweed [3, 12] | Pigweed plant response rating [3, 13] | Pigweed plant response rating [3, 14] | Plant response rating, Pigweed [3, 15] | Plant response rating, Ragweed [4, 12] | Ragweed plant response rating [4, 13] | further results
Cc1sc2ccccc2c1-c1c(O)cnn(C)c1=O [Compound 48] | 10 | 50 | 0 | 0 | 0 | 0 | 50 | 60 | 0 | 10 | 70 | 80 | 0 | 10 | 60 | 70 | 30 | 30 | 0 | 20 | Ragweed plant response rating [4, 14]: 10; Plant response rating, Ragweed [4, 15]: 60; Plant response rating, Ryegrass, Italian [5, 12]: 50; Ryegrass, Italian plant response rating [5, 13]: 60; Ryegrass, Italian plant response rating [5, 14]: 20; Plant response rating, Ryegrass, Italian [5, 15]: 60; Plant response rating, Wheat [6]: 0; Wheat plant response rating [6]: 0; Plant response rating, Blackgrass [7]: 0; Blackgrass plant response rating [7]: 30; Plant response rating, Galium [8]: 90; Galium plant response rating [8]: 90; Plant response rating, Barnyardgrass [9]: 0; Plant response rating, Ducksalad [10]: 0; Plant response rating, Rice (rice (Oryza sativa)): 0; Plant response rating, Sedge, Umbrella [11]: 0
Cn1ncc(O)c(-c2cccc3ccccc23)c1=O [Compound 49] | 0 | 20 | 0 | 0 | 0 | 0 | 0 | 20 | 0 | 10 | 0 | 10 | 0 | 0 | 20 | 40 | 0 | 40 | 0 | 10 | Ragweed plant response rating [4, 14]: 0; Plant response rating, Ragweed [4, 15]: 10; Plant response rating, Ryegrass, Italian [5, 12]: 30; Ryegrass, Italian plant response rating [5, 13]: 50; Ryegrass, Italian plant response rating [5, 14]: 0; Plant response rating, Ryegrass, Italian [5, 15]: 30; Plant response rating, Wheat [6]: 0; Wheat plant response rating [6]: 0; Plant response rating, Blackgrass [7]: 10; Blackgrass plant response rating [7]: 30; Plant response rating, Galium [8]: 50; Galium plant response rating [8]: 80; Plant response rating, Barnyardgrass [9]: 0; Plant response rating, Ducksalad [10]: 0; Plant response rating, Rice (rice (Oryza sativa)): 0; Plant response rating, Sedge, Umbrella [11]: 0
COc1ccc2sc(C)c(-c3c(O)c(C)nn(C)c3=O)c2c1 [Compound 53] | 0 | 20 | 0 | 20 | 0 | 0 | 0 | 30 | 50 | 50 | 70 | 80 | 50 | 70 | 60 | 70 | 50 | 70 | 60 | 70 | Ragweed plant response rating [4, 14]: 0; Plant response rating, Ragweed [4, 15]: 50; Plant response rating, Ryegrass, Italian [5, 12]: 40; Ryegrass, Italian plant response rating [5, 13]: 70; Ryegrass, Italian plant response rating [5, 14]: 10; Plant response rating, Ryegrass, Italian [5, 15]: 50; Plant response rating, Wheat [6]: 0; Wheat plant response rating [6]: 20; Plant response rating, Blackgrass [7]: 0; Blackgrass plant response rating [7]: 30; Plant response rating, Galium [8]: 60; Galium plant response rating [8]: 80; Plant response rating, Barnyardgrass [9]: 0; Plant response rating, Ducksalad [10]: 0; Plant response rating, Rice (rice (Oryza sativa)): 0; Plant response rating, Sedge, Umbrella [11]: 0
COc1ccc(-c2c(O)c(C)nn(C)c2=O)c2ccccc12 [Compound 58] | 0 | 0 | 0 | 20 | 0 | 0 | 0 | 10 | 0 | 0 | 20 | 90 | 20 | 80 | 0 | 20 | 0 | 20 | 0 | 60 | Ragweed plant response rating [4, 14]: 70; Plant response rating, Ragweed [4, 15]: 80; Plant response rating, Ryegrass, Italian [5, 12]: 60; Ryegrass, Italian plant response rating [5, 13]: 80; Ryegrass, Italian plant response rating [5, 14]: 70; Plant response rating, Ryegrass, Italian [5, 15]: 100; Plant response rating, Wheat [6]: 0; Wheat plant response rating [6]: 20; Plant response rating, Blackgrass [7]: 20; Blackgrass plant response rating [7]: 50; Plant response rating, Galium [8]: 70; Galium plant response rating [8]: 100; Plant response rating, Barnyardgrass [9]: 0; Plant response rating, Ducksalad [10]: 0; Plant response rating, Rice (rice (Oryza sativa)): 0; Plant response rating, Sedge, Umbrella [11]: 0
CCC(=O)Oc1c(C)nn(C)c(=O)c1-c1ccc(Cl)c2ccccc12 [Compound 62] | 70 | 90 | 50 | 90 | 10 | 30 | 80 | 90 | 50 | 90 | 100 | 100 | 90 | 90 | 100 | 100 | 100 | 100 | 100 | 100 | Ragweed plant response rating [4, 14]: 70; Plant response rating, Ragweed [4, 15]: 90; Plant response rating, Ryegrass, Italian [5, 12]: 100; Ryegrass, Italian plant response rating [5, 13]: 100; Ryegrass, Italian plant response rating [5, 14]: 100; Plant response rating, Ryegrass, Italian [5, 15]: 100; Plant response rating, Wheat [6]: 0; Wheat plant response rating [6]: 50; Plant response rating, Blackgrass [7]: 70; Blackgrass plant response rating [7]: 80; Plant response rating, Galium [8]: 100; Galium plant response rating [8]: 100; Plant response rating, Barnyardgrass [9]: 20; Plant response rating, Ducksalad [10]: 20; Plant response rating, Rice (rice (Oryza sativa)): 0; Plant response rating, Sedge, Umbrella [11]: 75
